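Values below derive from 48-hour exposures of cells grown in 96-well plates, with endpoints linearly interpolated between the two concentrations bracketing the appropriate inhibition level. GI50 = concentration required for 50% inhibition of growth. TGI: total growth inhibition.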
Legend:
Experiment in all cases: NCI anticancer screen, dose series, 48 h
786-0 renal = system: 786-0 renal
A498 renal = system: A498 renal
ACHN renal = system: ACHN renal
BT-549 breast = system: BT-549 breast
CAKI-1 renal = system: CAKI-1 renal
CCRF-CEM leukemia = system: CCRF-CEM leukemia
COLO 205 colon = system: COLO 205 colon
DU-145 prostate = system: DU-145 prostate
EKVX NSCLC = system: EKVX NSCLC
HCC-2998 colon = system: HCC-2998 colon
HCT-116 colon = system: HCT-116 colon
HCT-15 colon = system: HCT-15 colon
HL-60(TB) leukemia = system: HL-60(TB) leukemia
HOP-62 NSCLC = system: HOP-62 NSCLC
HOP-92 NSCLC = system: HOP-92 NSCLC
HS 578T breast = system: HS 578T breast
HT29 colon = system: HT29 colon
IGROV1 ovarian = system: IGROV1 ovarian
K-562 leukemia = system: K-562 leukemia
LOX IMVI melanoma = system: LOX IMVI melanoma
M14 melanoma = system: M14 melanoma
MALME-3M melanoma = system: MALME-3M melanoma
MDA-MB-231 breast = system: MDA-MB-231 breast
MDA-MB-435 = system: MDA-MB-435
MOLT-4 leukemia = system: MOLT-4 leukemia
NCI-H226 lung = system: NCI-H226 lung
NCI-H23 lung = system: NCI-H23 lung
NCI/ADR-RES ovarian = system: NCI/ADR-RES ovarian
OVCAR-3 ovarian = system: OVCAR-3 ovarian
OVCAR-5 ovarian = system: OVCAR-5 ovarian
OVCAR-8 ovarian = system: OVCAR-8 ovarian
PC-3 prostate = system: PC-3 prostate
RPMI-8226 leukemia = system: RPMI-8226 leukemia
RXF 393 renal = system: RXF 393 renal
SF-268 CNS = system: SF-268 CNS
SF-295 CNS = system: SF-295 CNS
SF-539 CNS = system: SF-539 CNS
SK-MEL-2 melanoma = system: SK-MEL-2 melanoma
SK-MEL-28 melanoma = system: SK-MEL-28 melanoma
SK-MEL-5 melanoma = system: SK-MEL-5 melanoma
SK-OV-3 ovarian = system: SK-OV-3 ovarian
SN12C renal = system: SN12C renal
SNB-19 CNS = system: SNB-19 CNS
SNB-75 CNS = system: SNB-75 CNS
SR leukemia = system: SR leukemia
SW-620 colon = system: SW-620 colon
T-47D breast = system: T-47D breast
TK-10 renal = system: TK-10 renal
U251 CNS = system: U251 CNS
UACC-257 melanoma = system: UACC-257 melanoma
UACC-62 melanoma = system: UACC-62 melanoma
UO-31 renal = system: UO-31 renal

Compound: Nc1nc(-c2cccc([N+](=O)[O-])c2)c(N=Nc2cccc([N+](=O)[O-])c2)s1
- GI50 (786-0 renal): 63 µM
- TGI (786-0 renal): > 100 µM
- GI50 (A498 renal): 33.1 µM
- TGI (A498 renal): > 100 µM
- GI50 (ACHN renal): > 100 µM
- TGI (ACHN renal): > 100 µM
- GI50 (BT-549 breast): 10.4 µM
- TGI (BT-549 breast): > 100 µM
- GI50 (CAKI-1 renal): > 100 µM
- TGI (CAKI-1 renal): > 100 µM
- GI50 (CCRF-CEM leukemia): 39.7 µM
- TGI (CCRF-CEM leukemia): > 100 µM
- GI50 (COLO 205 colon): > 100 µM
- TGI (COLO 205 colon): > 100 µM
- GI50 (DU-145 prostate): > 100 µM
- TGI (DU-145 prostate): > 100 µM
- GI50 (EKVX NSCLC): > 78.5 µM
- TGI (EKVX NSCLC): > 100 µM
- GI50 (HCC-2998 colon): > 100 µM
- TGI (HCC-2998 colon): > 100 µM
- GI50 (HCT-116 colon): > 100 µM
- TGI (HCT-116 colon): > 100 µM
- GI50 (HCT-15 colon): > 100 µM
- TGI (HCT-15 colon): > 100 µM
- GI50 (HL-60(TB) leukemia): > 52.6 µM
- TGI (HL-60(TB) leukemia): > 92.8 µM
- GI50 (HOP-62 NSCLC): 64.9 µM
- TGI (HOP-62 NSCLC): > 100 µM
- GI50 (HOP-92 NSCLC): 3.79 µM
- TGI (HOP-92 NSCLC): > 100 µM
- GI50 (HS 578T breast): > 100 µM
- TGI (HS 578T breast): > 100 µM
- GI50 (HT29 colon): > 100 µM
- TGI (HT29 colon): > 100 µM
- GI50 (IGROV1 ovarian): > 100 µM
- TGI (IGROV1 ovarian): > 100 µM
- GI50 (K-562 leukemia): 1390 nM
- TGI (K-562 leukemia): > 65 µM
- GI50 (LOX IMVI melanoma): > 100 µM
- TGI (LOX IMVI melanoma): > 100 µM
- GI50 (M14 melanoma): > 100 µM
- TGI (M14 melanoma): > 100 µM
- GI50 (MALME-3M melanoma): > 100 µM
- TGI (MALME-3M melanoma): > 100 µM
- GI50 (MDA-MB-231 breast): 13.6 µM
- TGI (MDA-MB-231 breast): > 100 µM
- GI50 (MDA-MB-435): > 100 µM
- TGI (MDA-MB-435): > 100 µM
- GI50 (MOLT-4 leukemia): > 25.3 µM
- TGI (MOLT-4 leukemia): > 100 µM
- GI50 (NCI-H226 lung): > 100 µM
- TGI (NCI-H226 lung): > 100 µM
- GI50 (NCI-H23 lung): > 100 µM
- TGI (NCI-H23 lung): > 100 µM
- GI50 (NCI/ADR-RES ovarian): > 100 µM
- TGI (NCI/ADR-RES ovarian): > 100 µM
- GI50 (OVCAR-3 ovarian): > 100 µM
- TGI (OVCAR-3 ovarian): > 100 µM
- GI50 (OVCAR-5 ovarian): > 100 µM
- TGI (OVCAR-5 ovarian): > 100 µM
- GI50 (OVCAR-8 ovarian): > 100 µM
- TGI (OVCAR-8 ovarian): > 100 µM
- GI50 (PC-3 prostate): > 27.2 µM
- TGI (PC-3 prostate): > 100 µM
- GI50 (RPMI-8226 leukemia): > 100 µM
- TGI (RPMI-8226 leukemia): > 100 µM
- GI50 (RXF 393 renal): > 100 µM
- TGI (RXF 393 renal): > 100 µM
- GI50 (SF-268 CNS): > 100 µM
- TGI (SF-268 CNS): > 100 µM
- GI50 (SF-295 CNS): > 100 µM
- TGI (SF-295 CNS): > 100 µM
- GI50 (SF-539 CNS): > 100 µM
- TGI (SF-539 CNS): > 100 µM
- GI50 (SK-MEL-2 melanoma): > 92.8 µM
- TGI (SK-MEL-2 melanoma): > 100 µM
- GI50 (SK-MEL-28 melanoma): > 100 µM
- TGI (SK-MEL-28 melanoma): > 100 µM
- GI50 (SK-MEL-5 melanoma): 56.9 µM
- TGI (SK-MEL-5 melanoma): > 100 µM
- GI50 (SK-OV-3 ovarian): > 100 µM
- TGI (SK-OV-3 ovarian): > 100 µM
- GI50 (SN12C renal): > 100 µM
- TGI (SN12C renal): > 100 µM
- GI50 (SNB-19 CNS): 57.9 µM
- TGI (SNB-19 CNS): > 100 µM
- GI50 (SNB-75 CNS): 53 µM
- TGI (SNB-75 CNS): > 100 µM
- GI50 (SR leukemia): 19.2 µM
- TGI (SR leukemia): > 57.3 µM
- GI50 (SW-620 colon): > 100 µM
- TGI (SW-620 colon): > 100 µM
- GI50 (T-47D breast): > 100 µM
- TGI (T-47D breast): > 100 µM
- GI50 (TK-10 renal): 46.5 µM
- TGI (TK-10 renal): > 100 µM
- GI50 (U251 CNS): 4.29 µM
- TGI (U251 CNS): > 100 µM
- GI50 (UACC-257 melanoma): > 100 µM
- TGI (UACC-257 melanoma): > 100 µM
- GI50 (UACC-62 melanoma): > 100 µM
- TGI (UACC-62 melanoma): > 100 µM
- GI50 (UO-31 renal): > 100 µM
- TGI (UO-31 renal): > 100 µM

From PubChem BioAssay (NCI)
